Measurements as given in patent US11000033B2, “Ketone or oxime compound, and herbicide” (NISSAN CHEMICAL CORPORATION, priority 2014, dated 2021).

Assays:
Type in all cases: in vivo
[1] = system: Lolium multiflorum Lam.; assay: Test Example 4: herbicidal effect by soil treatment (symbol K); conditions: application herbicide amount 320 g/ha
In short: (§1)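 Seeds were sown in sterilized diluvial soil, covered with about 1.5 cm of soil, and the soil surface was sprayed with a water-diluted emulsion of the compound at a predetermined rate. Plants grew in a greenhouse at 25° C. to 30° C.; effects were scored visually 3 weeks after application.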

[2] = system: Echinochloa crus-galli var. crus-galli; assay: Test Example 5: herbicidal effect by foliage application, plastic box (symbol H); conditions: 320 g/ha, 3 weeks after application
In short: (§2)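 After sowing into sterilized diluvial soil and growing two weeks under glass at 25° C. to 30° C., seedlings receive a uniform foliar spray of diluted emulsion. Damage is judged visually three weeks on.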

[3] = system: rice; assay: Test Example 4: effect on crop by soil treatment (symbol b); conditions: application herbicide amount 320 g/ha
In short: (§3)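 Steps: fill box with sterilized diluvial soil; sow seed spot-like; cover with ~1.5 cm soil; grow in greenhouse (25° C. to 30° C.).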

[4] = system: soybean; assay: Test Example 4: effect on crop by soil treatment (symbol d); conditions: application herbicide amount 320 g/ha
In short: as §3

[5] = system: Abutilon theophrasti; assay: Test Example 5: herbicidal effect by foliage application, plastic box (symbol M); conditions: 320 g/ha, 3 weeks after application
In short: as §2

[6] = system: Alopecurus myosuroides; assay: Test Example 5: herbicidal effect by foliage application, plastic box (symbol J); conditions: 320 g/ha, 3 weeks after application
In short: as §2

[7] = system: directly sowed rice plant; assay: Test Example 3: effect on crop by foliage application, Wagner pot (symbol b); conditions: application herbicide amount 320 g/ha
In short: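 Greenhouse culture at 25–30 °C of seeded rice, Cyperus difformis, Leptochloa chinensis and Echinochloa crus-galli var. crus-galli, in alluvial soil held under 0.1–0.5 cm of water in a Wagner pot.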

[8] = system: Amaranthus retroflexus; assay: Test Example 5: herbicidal effect by foliage application, plastic box (symbol N); conditions: 320 g/ha, 3 weeks after application
In short: as §2

[9] = system: Lolium multiflorum Lam.; assay: Test Example 5: herbicidal effect by foliage application, plastic box (symbol K); conditions: 320 g/ha, 3 weeks after application
In short: as §2

[10] = system: rice plant; assay: Test Example 5: effect on crop by foliage application, plastic box (symbol b); conditions: 320 g/ha, 3 weeks after application
In short: (§4)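 Greenhouse test at 25° C. to 30° C. Seeds of crops and weeds were spot-sown in boxes of sterilized diluvial soil under roughly 1.5 cm soil cover, then grown for foliage treatment.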

[11] = system: corn; assay: Test Example 5: effect on crop by foliage application, plastic box (symbol c); conditions: 320 g/ha, 3 weeks after application
In short: as §4

[12] = system: Monochoria vaginalis; assay: Test Example 1: herbicidal activity, application before weed generation in submerged conditions (symbol C); conditions: application herbicide amount 320 g/ha
In short: (§5)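 Weeds are sown into submerged alluvial soil alongside transplanted 2.5-leaf rice, and the compound, as an emulsion diluted to a set rate, is applied onto the water before emergence. Rating on the 0–5 herbicidal-ratio scale follows 3 weeks of greenhouse growth at 25–30 °C.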

[13] = system: Echinochloa oryzacola Vasing.; assay: Test Example 1: herbicidal activity, application before weed generation in submerged conditions (symbol A); conditions: application herbicide amount 320 g/ha
In short: as §5

[14] = system: transplanted rice plant; assay: Test Example 1: effect on crop, application before weed generation in submerged conditions (symbol a); conditions: application herbicide amount 320 g/ha
In short: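 Alluvial soil pots flooded to 4 cm water, sown with Echinochloa oryzacola, Scirpus juncoides and Monochoria vaginalis, then transplanted with 2.5 leaf stage rice seedlings; pre-emergence application. Greenhouse 25° C. to 30° C.; scored 0–5 by herbicidal ratio 3 weeks after application.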

[15] = system: Digitaria ciliaris; assay: Test Example 5: herbicidal effect by foliage application, plastic box (symbol F); conditions: 320 g/ha, 3 weeks after application
In short: as §2

[16] = system: Chenopodium album; assay: Test Example 4: herbicidal effect by soil treatment (symbol O); conditions: application herbicide amount 320 g/ha
In short: as §1

Row | SMILES | K: Lolium multiflorum Lam., herbicidal effect grade [1] | b: directly sowed rice plant, effect on crop grade [3] | d: soybean, effect on crop grade [4] | effect on crop b (directly sowed rice plant), grade 0-5 [7] | Herbicidal effect grade, C: Monochoria vaginalis [12] | Herbicidal effect grade, A: Echinochloa oryzacola Vasing. [13] | Effect grade on crop, a: transplanted rice plant [14] | O: Chenopodium album, herbicidal effect grade [16] | H: Echinochloa crus-galli var. crus-galli, herbicidal effect (criteria of Test Example 1) [2] | J: Alopecurus myosuroides, herbicidal effect (criteria of Test Example 1) [6] | N: Amaranthus retroflexus, herbicidal effect (criteria of Test Example 1) [8] | K: Lolium multiflorum Lam., herbicidal effect (criteria of Test Example 1) [9] | b: directly sowed rice plant, effect on crop (criteria of Test Example 1) [10] | c: corn, effect on crop (criteria of Test Example 1) [11] | F: Digitaria ciliaris, herbicidal effect (criteria of Test Example 1) [15] | M: Abutilon theophrasti, herbicidal effect (criteria of Test Example 1) [5] | other results
1 | CON=C(C)CC1CC(O)=C(c2c(C)cc(-c3ccccn3)cc2C)C1=O (mixture of isomers) [6-051] | 5 (Herbicidal ratio of 90% or more (almost completely withered)) | 5 (Herbicidal ratio of 90% or more (almost completely withered)) | 1 (Herbicidal ratio of 5% or higher and lower than 20%) | 5 (Herbicidal ratio of 90% or more (almost completely withered)) | 2 (Herbicidal ratio of 20% or higher and lower than 40%) | 4 (Herbicidal ratio of 70% or higher and lower than 90%) | 5 (Herbicidal ratio of 90% or more (almost completely withered)) | 0 (Herbicidal ratio of 5% or lower (almost no effect)) |  |  |  |  |  |  |  |  | H: Echinochloa crus-galli var. crus-galli, herbicidal effect grade [2]: 5 (Herbicidal ratio of 90% or more (almost completely withered)); M: Abutilon theophrasti, herbicidal effect grade [5]: 1 (Herbicidal ratio of 5% or higher and lower than 20%); J: Alopecurus myosuroides, herbicidal effect grade [6]: 5 (Herbicidal ratio of 90% or more (almost completely withered)); N: Amaranthus retroflexus, herbicidal effect grade [8]: 3 (Herbicidal ratio of 40% or higher and lower than 70%); K: Lolium multiflorum Lam., herbicidal effect grade [9]: 5 (Herbicidal ratio of 90% or more (almost completely withered)); b: directly sowed rice plant, effect on crop grade [10]: 5 (Herbicidal ratio of 90% or more (almost completely withered)); c: corn, effect on crop grade [11]: 5 (Herbicidal ratio of 90% or more (almost completely withered)); F: Digitaria ciliaris, herbicidal effect grade [15]: 5 (Herbicidal ratio of 90% or more (almost completely withered))
2 | CON=C(C)CC1CC(O)=C(c2c(C)cc(-c3ccc(F)cc3)cc2C)C1=O (mixture of isomers) [6-058] | 5 (Herbicidal ratio of 90% or more (almost completely withered)) | 5 (Herbicidal ratio of 90% or more (almost completely withered)) | 0 (Herbicidal ratio of 5% or lower (almost no effect)) | 5 (Herbicidal ratio of 90% or more (almost completely withered)) | 5 (Herbicidal ratio of 90% or more (almost completely withered)) | 5 (Herbicidal ratio of 90% or more (almost completely withered)) | 5 (Herbicidal ratio of 90% or more (almost completely withered)) | 5 (Herbicidal ratio of 90% or more (almost completely withered)) | 5 (Herbicidal ratio of 90% or more (almost completely withered)) | 5 (Herbicidal ratio of 90% or more (almost completely withered)) | 5 (Herbicidal ratio of 90% or more (almost completely withered)) | 5 (Herbicidal ratio of 90% or more (almost completely withered)) | 5 (Herbicidal ratio of 90% or more (almost completely withered)) | 5 (Herbicidal ratio of 90% or more (almost completely withered)) | 5 (Herbicidal ratio of 90% or more (almost completely withered)) |  | 
3 | CCc1cc(-c2ccc(Cl)cc2)cc(C)c1C1=C(OC(=O)N2CCOCC2)CC(CC(C)=NOC)C1=O (mixture of isomers) [6-064] | 0 (Herbicidal ratio of 5% or lower (almost no effect)) | 0 (Herbicidal ratio of 5% or lower (almost no effect)) | 0 (Herbicidal ratio of 5% or lower (almost no effect)) | 4 (Herbicidal ratio of 70% or higher and lower than 90%) | 0 (Herbicidal ratio of 5% or lower (almost no effect)) | 5 (Herbicidal ratio of 90% or more (almost completely withered)) | 5 (Herbicidal ratio of 90% or more (almost completely withered)) | 0 (Herbicidal ratio of 5% or lower (almost no effect)) | 5 (Herbicidal ratio of 90% or more (almost completely withered)) | 3 (Herbicidal ratio of 40% or higher and lower than 70%) |  | 5 (Herbicidal ratio of 90% or more (almost completely withered)) | 5 (Herbicidal ratio of 90% or more (almost completely withered)) | 5 (Herbicidal ratio of 90% or more (almost completely withered)) | 5 (Herbicidal ratio of 90% or more (almost completely withered)) | 4 (Herbicidal ratio of 70% or higher and lower than 90%) | 
4 | CON=C(C)CC1CC(OC(=O)N2CCOCC2)=C(c2c(C)cc(-c3ccc(Cl)cc3)cc2OC)C1=O (centres unmarked) [6-078, 2-(4′-chloro-3-methoxy-5-methyl-[1,1′-biphenyl]-4-yl)-4-{2-(methoxyimino)propyl}-3-oxocyclopent-1-ene-1-yl morpholine-4-carboxylate] | 0 (Herbicidal ratio of 5% or lower (almost no effect)) | 1 (Herbicidal ratio of 5% or higher and lower than 20%) | 1 (Herbicidal ratio of 5% or higher and lower than 20%) | 5 (Herbicidal ratio of 90% or more (almost completely withered)) | 4 (Herbicidal ratio of 70% or higher and lower than 90%) | 5 (Herbicidal ratio of 90% or more (almost completely withered)) | 5 (Herbicidal ratio of 90% or more (almost completely withered)) | 0 (Herbicidal ratio of 5% or lower (almost no effect)) | 5 (Herbicidal ratio of 90% or more (almost completely withered)) | 5 (Herbicidal ratio of 90% or more (almost completely withered)) | 0 (Herbicidal ratio of 5% or lower (almost no effect)) | 4 (Herbicidal ratio of 70% or higher and lower than 90%) |  | 5 (Herbicidal ratio of 90% or more (almost completely withered)) | 5 (Herbicidal ratio of 90% or more (almost completely withered)) | 4 (Herbicidal ratio of 70% or higher and lower than 90%) | 
5 | COc1cc(Br)cc(F)c1C1=C(O)CC(CC(C)=O)C1=O (centres unmarked) [7-029] |  |  |  |  | 0 (Herbicidal ratio of 5% or lower (almost no effect)) | 2 (Herbicidal ratio of 20% or higher and lower than 40%) | 0 (Herbicidal ratio of 5% or lower (almost no effect)) |  |  | 3 (Herbicidal ratio of 40% or higher and lower than 70%) |  | 5 (Herbicidal ratio of 90% or more (almost completely withered)) |  |  |  |  | Herbicidal effect grade, K: Lolium multiflorum Lam. [1]: 3 (Herbicidal ratio of 40% or higher and lower than 70%); Effect on crop grade, b: directly sowed rice plant [3]: 1 (Herbicidal ratio of 5% or higher and lower than 20%); Effect on crop grade, d: soybean [4]: 0 (Herbicidal ratio of 5% or lower (almost no effect)); b (directly sowed rice plant) effect on crop grade ([7]; Table 24): 0 (Herbicidal ratio of 5% or lower (almost no effect)); Herbicidal effect grade, O: Chenopodium album [16]: 0 (Herbicidal ratio of 5% or lower (almost no effect))
